Experimental data reported in patent US5191079A, “Quinolinecarboxylic acid derivatives” (priority 1990, dated 1993).
Converted amounts (≈) assume the structure as drawn.

What was measured:
[1] = tested on: Acinetobacter calcoaceticus Ac 54; test: MIC, Experiment 1; type: cell-based; conditions: AC54, A. calcoaceticus Ac 54, Gram -, read-out: Min. inhib. concentr. (MIC)
Description: (§1) The compounds of the present invention (B, E, G, H, M, N, O, P and Q) were each dissolved in dimethylsulfoxide to prepare a solution of 5000 μg/ml in concentration. The compounds of the present invention (I, J and K) and the known compound (Y) were each dissolved in sterilized distilled water to prepare a solution of 5000 μg/ml in concentration. Each solution was diluted with sterilized distilled water to prepare a standard solution with a concentration of each test compound: 1000 μg/ml. The test was carried out by a method as appointed by Japan Society of Chemotherapy [cf. Chemotherapy, 29, 76-79 (1981), TOKYO].
(§2) As to Streptococcus pneumoniae and Streptococcus pyogenes, Brain heart infusion broth (manufactured by DIFCO) was used as the medium for the preculture thereof, and a heart infusion agar medium containing 5% defibrinated horse blood (manufactured by Nissui Seiyaku K. K., Japan) was used as the medium for the measurement of minimum inhibitory concentration (MIC). As to other microorganisms, a sensitivity test broth (manufactured by Nissui Seiyaku K. K.) was used as the medium for the preculture thereof, and a sensitivity test agar medium (manufactured by Nissui Seiyaku K. K.) was used as the medium for the measurement of MIC.

Bacillus cereus IAM 1029 = test: MIC, Experiment 1; type: cell-based; conditions: IAM1029, B. cereus IAM 1029, Gram +, read-out: Min. inhib. concentr. (MIC)
Description: as §1, §2

[2] = tested on: Bacillus subtilis ATCC 6633; test: MIC, Experiment 1; type: cell-based; conditions: ATCC6633, B. subtilis ATCC 6633, Gram +, read-out: Min. inhib. concentr. (MIC)
Description: as §1, §2

Enterobacter cloacae 963 = test: MIC, Experiment 1; type: cell-based; conditions: E. cloacae 963, Gram -, read-out: Min. inhib. concentr. (MIC)
Description: as §1, §2

[3] = tested on: Escherichia coli NIHJ JC-2; test: MIC, Experiment 1; type: cell-based; conditions: NIHJJC2, E. coli NIHJ JC-2, Gram -, read-out: Min. inhib. concentr. (MIC)
Description: as §1, §2

[4] = tested on: Klebsiella pneumoniae PCI-602; test: MIC, Experiment 1; type: cell-based; conditions: PCI602, K. pneumoniae PCI-602, Gram -, read-out: Min. inhib. concentr. (MIC)
Description: as §1, §2

[5] = tested on: Micrococcus luteus ATCC 9341; test: MIC, Experiment 1; type: cell-based; conditions: ATCC9341, M. luteus ATCC 9341, Gram +, read-out: Min. inhib. concentr. (MIC)
Description: as §1, §2

[6] = tested on: Proteus mirabilis IFO 3849; test: MIC, Experiment 1; type: cell-based; conditions: IFO3849, P. mirabilis IFO 3849, Gram -, read-out: Min. inhib. concentr. (MIC)
Description: as §1, §2

[7] = tested on: Pseudomonas aeruginosa NCTC 10490; test: MIC, Experiment 1; type: cell-based; conditions: NCTC10490, P. aeruginosa NCTC 10490, Gram -, read-out: Min. inhib. concentr. (MIC)
Description: as §1, §2

[8] = tested on: Staphylococcus aureus ATCC 9144; test: MIC, Experiment 1; type: cell-based; conditions: ATCC9144, S. aureus ATCC 9144, Gram +, read-out: Min. inhib. concentr. (MIC)
Description: as §1, §2

[9] = tested on: Staphylococcus aureus Cowan I (IID 975); test: MIC, Experiment 1; type: cell-based; conditions: IID975, S. aureus Cowan I (IID 975), Gram +, read-out: Min. inhib. concentr. (MIC)
Description: as §1, §2

[10] = tested on: Staphylococcus aureus FDA 209P JC-1; test: MIC, Experiment 1; type: cell-based; conditions: FDA209P, S. aureus FDA 209P JC-1, Gram +, read-out: Min. inhib. concentr. (MIC)
Description: as §1, §2

[11] = tested on: Staphylococcus aureus FDA 243; test: MIC, Experiment 1; type: cell-based; conditions: FDA243, S. aureus FDA 243, Gram +, read-out: Min. inhib. concentr. (MIC)
Description: as §1, §2

[12] = tested on: Staphylococcus aureus IID 803; test: MIC, Experiment 1; type: cell-based; conditions: IID803, S. aureus IID 803, Gram +, read-out: Min. inhib. concentr. (MIC)
Description: as §1, §2

[13] = tested on: Staphylococcus aureus Terajima (IID 670); test: MIC, Experiment 1; type: cell-based; conditions: IID670, S. aureus Terajima (IID 670), Gram +, read-out: Min. inhib. concentr. (MIC)
Description: as §1, §2

[14] = tested on: clinically isolated Enterococcus faecalis; test: In vitro antibacterial activity against clinical isolates, Experiment 2; type: cell-based
Description: (§3) The above solutions were then diluted with sterilized distilled water to prepare a standard solution with a concentration of the test compound: 1000 μg/ml each.
(§4) For the preculture of each microorganism, there was used as the medium a sensitivity test broth (manufactured by Nissui Seiyaku K. K., Japan), and for the measurement of MIC, there was used a sensitivity test agar medium (manufactured by Nissui Seiyaku K. K.).
(§5) The clinically isolates used above were isolated from Nov. 1988 to Jun. 1989 and were obtained from Research Section, Tokyo Clinical Research Center.

[15] = tested on: clinically isolated Enterococcus faecium; test: as above; type: cell-based
Description: as §3, §4, §5

[16] = tested on: clinically isolated Staphylococcus aureus; test: as above; type: cell-based
Description: as §3, §4, §5

[17] = tested on: clinically isolated Staphylococcus epidermidis; test: as above; type: cell-based; conditions: Staphylococcus epidermidis
Description: as §3, §4, §5

[18] = tested on: Staphylococcus aureus IID 803; test: Effect on treatment of general infectious disease (systemic infection in mice), Experiment 3; type: in vivo, Staphylococcus aureus; ddY male mice; conditions: Staphylococcus aureus, IID803, 168 h; oral, 1 h after i.p. infection, mice, survival after one week, average of several tests; read-out: 50% effective dose (ED50)
Description: Staphylococcus aureus IID 803
The test microorganism was subjected to standing culture in Brain heart infusion broth (manufactured by DIFCO) at 37° C. for 16 to 18 hours. The culture was then diluted with PBS (Dulbecco's phosphate buffered saline) to adjust the concentration of bacteria to 4×10^7 -8×10^7 CFU/ml. The mixture was mixed with an equivalent amount of 10% (w/v) Mucin (BACTO MUCIN BACTERIOLOGICAL, manufactured by Difco Co.) to prepare a bacterial suspension. The thus prepared bacterial suspension (0.5 ml each) was intraperitoneally inoculated to ddY male mice (5 weeks age, weighing 24-27 g, 5 mice in each group), to infect the animals, by which systemic infectious model was prepared.
The mice were daily observed for one week, and from the survival number of mice after one week, the 50% effective dose (ED50) was calculated by Weil method. This test was repeated several times and the average of ED50 was calculated.

Compound: CC1COc2c(N3CCN(C)CC3)c(F)cc3c(=O)c(C(=O)O)cn1c23 (stereo not drawn) [Compound (X), 9-Fluoro-3-methyl-10-(4-methyl-1-piperazinyl)-7-oxo-2,3-dihydro-7H-pyrido[1,2,3-de][1,4]benzoxazine-6-carboxylic acid, reference compound]
- MIC [1]: 0.39 mg/L (≈ 1.08 µM)
- MIC (Bacillus cereus IAM 1029): 0.39 mg/L (≈ 1.08 µM)
- MIC [2]: 0.1 mg/L (≈ 0.277 µM)
- MIC (Enterobacter cloacae 963): 0.2 mg/L (≈ 0.553 µM)
- MIC [3]: 0.1 mg/L (≈ 0.277 µM)
- MIC [4]: 0.05 mg/L (≈ 0.138 µM)
- MIC [5]: 3.13 mg/L (≈ 8.66 µM)
- MIC [6]: 0.39 mg/L (≈ 1.08 µM)
- MIC [7]: 1.56 mg/L (≈ 4.32 µM)
- MIC [8]: 0.39 mg/L (≈ 1.08 µM)
- MIC [9]: 0.39 mg/L (≈ 1.08 µM)
- MIC [10]: 0.39 mg/L (≈ 1.08 µM)
- MIC [11]: 0.39 mg/L (≈ 1.08 µM)
- MIC [12]: 0.39 mg/L (≈ 1.08 µM)
- MIC [13]: 0.39 mg/L (≈ 1.08 µM)
- MIC50 [14]: 3.13 mg/L (≈ 8.66 µM)
- MIC ([14]; 25 clinical strains E. faecalis): 1.56 to 100 mg/L (≈ 4.32 to 277 µM)
- MIC90 ([14]; 25 clinical strains E. faecalis, 90% of strains, read-out: MIC90): 50 mg/L (≈ 138 µM)
- MIC90 [15]: 100 mg/L (≈ 277 µM)
- MIC50 ([15]; 25 clinical strains E. faecium, 50% of strains, read-out: MIC50): 25 mg/L (≈ 69.2 µM)
- MIC50 [16]: 1.56 mg/L (≈ 4.32 µM)
- MIC90 [16]: 25 mg/L (≈ 69.2 µM)
- MIC ([16]; 25 clinical strains S. aureus incl. 16 methicillin resistant): 0.39 to 50 mg/L (≈ 1.08 to 138 µM)
- MIC90 [17]: 25 mg/L (≈ 69.2 µM)
- MIC ([17]; 25 clinical strains S. epidermidis): 0.2 to 50 mg/L (≈ 0.553 to 138 µM)
- MIC50 ([17]; 25 clinical strains S. epidermidis, 50% of strains, read-out: MIC50): 0.78 mg/L (≈ 2.16 µM)
- ED50 [18]: 11.4 mg/kg
